Measured values reported in ChEMBL document CHEMBL4257221, “Peptides comprising non-natural amino acids and methods of making and using the same” (2016).
Activity calls are given as the source filed them. The rule behind the calls is not given here. Numbered stars: 1 amine (or outer) side, 2 acyl side, 3 side chain; on linkers, the order of the positions; unused ones are H or OH. Square brackets hold non-standard residues; d marks the D form. Peptide text beside a SMILES is read from it. ξ: configuration not given here. X1 = O=C([C@H]1CCC[C@@H]1N[*:1])[*:2]; X2 = O=C([C@H]1CNC[C@@H]1N[*:1])[*:2]; ξβ3hQ = NC(=O)CCC(N)CC(=O)O; ξβ3hL = CC(C)CC(N)CC(=O)O; ξβ3hK = NCCCCC(N)CC(=O)O; ξβ3hT = CC(O)C(N)CC(=O)O; ξβ3hV = CC(C)C(N)CC(=O)O; βAla = NCCC(=O)O

Tests used:
Mus musculus [1] = assay: (§1) Anti-parkinson's activity in MPTP-induced C57BL/6 mouse model of Parkinson's disease receiving adaptive transfer of splenocytes from 15 ug/day/5 days, ip compound treated donor mouse assessed as TH-positive neurons survival rate in substantia nigra at 15 ug/day, ip for 5 days measured on day 7 post MPTP intoxication by FJ-C staining based assay relative to control; format: functional
Mus musculus [2] = assay: Stimulation of Treg cells function in C57BL/6 mouse splenocytes assessed as suppression of anti-CD3-stimulated effector T cell proliferation pretreated ip daily for 5 days followed by splenocytes isolation and co-culture with untreated splenocytes at 1:1 ratio; format: functional, organism-based
Mus musculus [3] = assay: Stimulation of Treg cells function in C57BL/6 mouse splenocytes assessed as suppression of anti-CD3-stimulated CD4+/CD25- naive T cells proliferation at 300 ug, ip pretreated daily for 5 days followed by splenocytes isolation and co-culture with CD4+/CD25- naive T cells; format: functional, organism-based
Mus musculus [4] = assay: as §1, with “nigra” for “nigra at 15 ug/day, ip for 5 days”, “(reference value: 24.5%)” for “relative to control”; format: functional
Dipeptidyl peptidase 4 = Dipeptidyl peptidase 4 (Homo sapiens, UniProt P27487); assay: Stability of the compound assessed as DPP4 (unknown origin)-mediated compound hydrolysis at 250 uM by HPLC analysis; format: ADME
Dipeptidyl peptidase 4, sequence (P27487 whole entry): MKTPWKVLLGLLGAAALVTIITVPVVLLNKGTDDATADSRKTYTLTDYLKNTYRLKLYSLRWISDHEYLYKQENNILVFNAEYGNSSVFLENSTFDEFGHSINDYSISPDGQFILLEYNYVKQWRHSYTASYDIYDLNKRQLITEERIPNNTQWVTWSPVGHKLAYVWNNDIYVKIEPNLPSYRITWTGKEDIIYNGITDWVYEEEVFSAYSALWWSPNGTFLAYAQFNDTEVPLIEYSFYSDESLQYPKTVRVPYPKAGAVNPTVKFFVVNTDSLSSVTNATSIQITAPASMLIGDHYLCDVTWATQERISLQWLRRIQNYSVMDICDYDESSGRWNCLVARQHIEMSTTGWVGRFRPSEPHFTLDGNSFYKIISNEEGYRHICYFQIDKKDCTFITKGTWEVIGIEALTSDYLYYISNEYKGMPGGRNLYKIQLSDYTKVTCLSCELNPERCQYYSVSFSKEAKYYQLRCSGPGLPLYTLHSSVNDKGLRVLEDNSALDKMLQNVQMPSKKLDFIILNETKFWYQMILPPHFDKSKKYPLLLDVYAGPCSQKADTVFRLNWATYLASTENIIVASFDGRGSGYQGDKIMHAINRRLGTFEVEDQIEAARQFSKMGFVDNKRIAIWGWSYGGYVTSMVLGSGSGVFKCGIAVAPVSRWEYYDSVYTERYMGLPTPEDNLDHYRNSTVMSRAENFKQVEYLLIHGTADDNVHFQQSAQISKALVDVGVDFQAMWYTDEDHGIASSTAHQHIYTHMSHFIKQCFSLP

Chymotrypsin = Chymotrypsin (Homo sapiens, UniProt Q99895+P17538+P40313+Q6GPI1); assay: Stability of the compound assessed as chymotrypsin (unknown origin)-mediated compound hydrolysis at 250 uM by HPLC analysis; format: ADME
Proteinase K = Proteinase K (Engyodontium album, UniProt P06873); assay: Stability of the compound assessed as Tritirachium album proteinase K-mediated compound hydrolysis at 250 uM by HPLC analysis; format: ADME; details: parengyodontium album
Proteinase K, sequence (P06873 whole entry): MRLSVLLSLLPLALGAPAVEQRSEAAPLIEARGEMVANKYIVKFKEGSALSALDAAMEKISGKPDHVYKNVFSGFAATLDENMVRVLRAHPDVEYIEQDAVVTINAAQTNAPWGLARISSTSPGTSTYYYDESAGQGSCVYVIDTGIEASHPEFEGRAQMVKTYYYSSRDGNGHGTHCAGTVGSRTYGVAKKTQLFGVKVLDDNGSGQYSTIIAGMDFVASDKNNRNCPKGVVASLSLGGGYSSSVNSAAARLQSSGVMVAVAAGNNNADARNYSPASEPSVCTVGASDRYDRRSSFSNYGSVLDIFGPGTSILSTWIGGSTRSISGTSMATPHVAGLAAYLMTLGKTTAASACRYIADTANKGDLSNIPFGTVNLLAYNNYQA

[5] = molecular target: T1, Vasoactive intestinal polypeptide receptor 1 (Homo sapiens, UniProt P32241); assay: Agonist activity at human VIPR1 expressed in CHOK1 cells assessed as intracellular cAMP accumulation after 60 mins by PathHunter assay; format: functional, cell-based
T1 sequence (P32241 whole entry): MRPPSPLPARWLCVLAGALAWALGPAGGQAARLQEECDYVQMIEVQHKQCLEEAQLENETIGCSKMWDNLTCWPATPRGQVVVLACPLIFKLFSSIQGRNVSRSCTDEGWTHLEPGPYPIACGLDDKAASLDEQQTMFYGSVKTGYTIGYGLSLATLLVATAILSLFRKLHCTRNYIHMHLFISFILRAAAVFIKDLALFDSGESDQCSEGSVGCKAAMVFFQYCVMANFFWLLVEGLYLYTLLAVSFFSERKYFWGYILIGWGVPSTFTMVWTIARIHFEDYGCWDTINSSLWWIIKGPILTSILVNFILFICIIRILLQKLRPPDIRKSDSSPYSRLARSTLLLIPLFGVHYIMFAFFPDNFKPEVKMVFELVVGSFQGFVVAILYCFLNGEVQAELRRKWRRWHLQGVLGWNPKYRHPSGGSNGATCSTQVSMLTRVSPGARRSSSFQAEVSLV

[6] = molecular target: T2, Vasoactive intestinal polypeptide receptor 2 (Homo sapiens, UniProt P41587); assay: Agonist activity at human VIPR2 expressed in CHOK1 cells assessed as intracellular cAMP accumulation after 60 mins by PathHunter assay; format: functional, cell-based
T2 sequence (P41587 whole entry): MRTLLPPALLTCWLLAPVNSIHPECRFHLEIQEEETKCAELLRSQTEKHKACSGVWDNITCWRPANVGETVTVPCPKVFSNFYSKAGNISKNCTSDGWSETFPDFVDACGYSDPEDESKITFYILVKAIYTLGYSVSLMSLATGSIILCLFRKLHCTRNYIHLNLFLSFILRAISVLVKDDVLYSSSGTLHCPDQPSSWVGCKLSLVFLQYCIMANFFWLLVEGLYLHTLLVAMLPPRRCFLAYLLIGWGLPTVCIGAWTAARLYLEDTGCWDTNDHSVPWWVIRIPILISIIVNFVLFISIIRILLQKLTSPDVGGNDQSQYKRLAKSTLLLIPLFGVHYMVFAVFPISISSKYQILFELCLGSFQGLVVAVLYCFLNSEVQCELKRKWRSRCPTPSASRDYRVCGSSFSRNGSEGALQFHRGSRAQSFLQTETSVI

[7] = molecular target: T1, Vasoactive intestinal polypeptide receptor 1; assay: Induction of VIPR1 receptor internalization in CHOK1 cells expressing human VIPR1 by beta-galactosidase reporter gene assay; format: functional, cell-based

SMILES	Activity (Mus musculus [2])	Activity (Mus musculus [3])	Survival (Mus musculus [4])	Stability (Dipeptidyl peptidase 4)	Stability (Chymotrypsin)	Stability (Proteinase K)	EC50 [5]	further results
CC[C@H](C)[C@H](NC(=O)C1CCCN1C(=O)[C@H](CCC(N)=O)NC(=O)[C@H](CC(C)C)NC(=O)[C@H](Cc1ccc(O)cc1)NC(=O)[C@H](CCCCN)NC(=O)[C@H](CCCCN)NC(=O)[C@H](C)NC(=O)C1CCCN1C(=O)[C@@H](NC(=O)[C@H](CCC(N)=O)NC(=O)C1CCCN1C(=O)[C@H](CCCNC(=N)N)NC(=O)[C@H](CC(C)C)NC(=O)[C@H](CCCNC(=N)N)NC(=O)[C@@H](NC(=O)[C@H](Cc1ccc(O)cc1)NC(=O)[C@H](CC(N)=O)NC(=O)[C@H](CC(=O)O)NC(=O)[C@@H](NC(=O)[C@H](Cc1ccccc1)NC(=O)[C@@H](NC(=O)[C@H](C)NC(=O)[C@H](CC(=O)O)NC(=O)[C@H](CO)NC(=O)[C@@H](N)Cc1cnc[nH]1)C(C)C)[C@@H](C)O)[C@@H](C)O)C(C)C)C(=O)N[C@@H](CCCCN)C(=O)N[C@@H](CC(N)=O)C(=O)N[C@@H](CCCCN)C(=O)N[C@@H](CCCNC(=N)N)C(=O)N[C@@H](Cc1ccc(O)cc1)C(=O)O (some centres not stated)	Dose-dependent effect	Active	50.2%	–	–	–	–	Survival (Mus musculus [1]): 69.1%
CCCC[C@H](NC(=O)[C@H](CCC(N)=O)NC(=O)[C@H](CCCCN)NC(=O)[C@H](CCCNC(=N)N)NC(=O)[C@H](CC(C)C)NC(=O)[C@H](CCCCN)NC(=O)[C@@H](NC(=O)[C@H](Cc1ccc(O)cc1)NC(=O)[C@H](CC(N)=O)NC(=O)[C@H](CCC(=O)OC(=O)[C@H](C)NC(=O)[C@H](CC(=O)O)NC(=O)[C@H](CO)NC(=O)[C@H](Cc1c[nH]cn1)NC(C)=O)NC(=O)[C@@H](NC(=O)[C@H](Cc1ccccc1)NC(=O)[C@@H](N)C(C)C)[C@@H](C)O)[C@@H](C)O)C(=O)N[C@@H](C)C(=O)N[C@@H](C)C(=O)N[C@@H](CCCCN)C(=O)N[C@@H](CCCCN)C(=O)N[C@@H](Cc1ccc(O)cc1)C(=O)N[C@@H](CC(C)C)C(=O)N[C@@H](CC(N)=O)C(=O)NC(=O)[C@@H](NC(=O)CNC(=O)CNC(=O)[C@@H]1CCCCN[C@@H](CC(N)=O)C(=O)N[C@@H](CC(C)C)C(=O)N[C@@H](CCCCN)C(=O)N1)[C@@H](C)O	–	–	–	Stable	Stable	Stable	–	–
CC(=O)N[C@@H](Cc1cnc[nH]1)C(=O)N[C@H]1CCC[C@@H]1C(=O)N[C@@H](CC(=O)O)C(=O)N[C@@H](C)C(=O)N[C@H]1CCC[C@@H]1C(=O)N[C@@H](Cc1ccccc1)C(=O)N[C@H](C(=O)N[C@@H](CCC(=O)O)C(=O)N[C@@H](CC(N)=O)C(=O)N[C@@H](Cc1ccc(O)cc1)C(=O)N[C@H](C(=O)N[C@@H](CCCCN)C(=O)N[C@@H](CC(C)C)C(=O)N[C@@H](CCCNC(=N)N)C(=O)N[C@@H](CCCCN)C(=O)N[C@@H](CCC(N)=O)C(=O)N[C@@H](CC(C)C)C(=O)N[C@@H](C)C(=O)N[C@@H](C)C(=O)N[C@H]1CNC[C@@H]1C(=O)N[C@@H](CCCCN)C(=O)N[C@@H](Cc1ccc(O)cc1)C(=O)N[C@H]1CCC[C@@H]1C(=O)N[C@@H](CC(N)=O)C(=O)N[C@@H](CC(=O)O)C(=O)N[C@@H](CC(C)C)C(=O)NC(CCCCN)CC(=O)N[C@@H](CCCCN)C(=O)NCC(=O)NCCC(=O)N[C@H](C(=O)O)[C@@H](C)O)[C@@H](C)O)[C@@H](C)O (stereo partly drawn) (Ac-H[X1]DA[X1]FTENYTKLRKQLAA[X2]KY[X1]NDL[ξβ3hK]KG[βAla]T-OH)	–	–	–	Stable	Stable	Stable	133 nM	EC50 [6]: 0.646 nM
CC(=O)N[C@@H](Cc1cnc[nH]1)C(=O)N[C@H]1CCC[C@@H]1C(=O)N[C@@H](CC(=O)O)C(=O)N[C@@H](C)C(=O)N[C@H]1CCC[C@@H]1C(=O)N[C@@H](Cc1ccccc1)C(=O)N[C@H](C(=O)N[C@@H](CCC(=O)O)C(=O)N[C@@H](CC(N)=O)C(=O)N[C@@H](Cc1ccc(O)cc1)C(=O)N[C@H](C(=O)N[C@@H](CCCCN)C(=O)N[C@@H](CC(C)C)C(=O)N[C@@H](CCCNC(=N)N)C(=O)N[C@@H](CCCCN)C(=O)NC(CCC(N)=O)CC(=O)N[C@@H](CC(C)C)C(=O)N[C@@H](C)C(=O)N[C@@H](C)C(=O)N[C@H]1CNC[C@@H]1C(=O)N[C@@H](CCCCN)C(=O)N[C@@H](Cc1ccc(O)cc1)C(=O)N[C@H]1CCC[C@@H]1C(=O)N[C@@H](CC(N)=O)C(=O)N[C@@H](CC(=O)O)C(=O)N[C@@H](CC(C)C)C(=O)NC(CCCCN)CC(=O)N[C@@H](CCCCN)C(=O)NCC(=O)NCCC(=O)NC(CC(=O)O)C(C)O)[C@@H](C)O)[C@@H](C)O (stereo partly drawn) (Ac-H[X1]DA[X1]FTENYTKLRK[ξβ3hQ]LAA[X2]KY[X1]NDL[ξβ3hK]KG[βAla][ξβ3hT]-OH)	Dose-dependent effect	Active	79.7%	–	–	–	–	–
CC[C@H](C)[C@H](NC(=O)[C@H](C)NC(=O)[C@H](CC(N)=O)NC(=O)CC(CC(C)C)NC(=O)[C@H](Cc1ccc(O)cc1)NC(=O)[C@H](CCCCN)NC(=O)[C@H](CCCCN)NC(=O)CC(NC(=O)[C@H](C)NC(=O)[C@H](CC(C)C)NC(=O)[C@H](CCC(N)=O)NC(=O)CC(CCCCN)NC(=O)[C@H](CCCNC(=N)N)NC(=O)[C@H](CC(C)C)NC(=O)[C@H](CCCNC(=N)N)NC(=O)CC(NC(=O)[C@H](Cc1ccc(O)cc1)NC(=O)[C@H](CC(N)=O)NC(=O)[C@H](CC(=O)O)NC(=O)[C@@H](NC(=O)[C@H](Cc1ccccc1)NC(=O)[C@@H](NC(=O)[C@H](C)NC(=O)[C@H](CC(=O)O)NC(=O)[C@H](CO)NC(=O)[C@@H](N)Cc1cnc[nH]1)C(C)C)[C@@H](C)O)C(C)O)C(C)C)C(=O)NC(CC(=O)N[C@@H](CC(N)=O)C(=O)O)CC(C)C (stereo partly drawn) (H-HSDAVFTDNY[ξβ3hT]RLR[ξβ3hK]QLA[ξβ3hV]KKY[ξβ3hL]NAI[ξβ3hL]N-OH)	–	–	–	–	–	–	2.17 nM	EC50 [7]: 10.2 nM
